# Laboratory results reported in ChEMBL document CHEMBL4411288, “Design, synthesis and biological evaluation of novel 7-amino-[1,2,4]triazolo[4,3-f]pteridinone, and 7-aminotetrazolo[1,5-f]pteridinone derivative as potent antitumor agents” (Eur J Med Chem, 2019).
# Experiments:
# [1] = system: PC-3; test: Cytotoxicity against human PC3 cells assessed as reduction in cell viability after 72 hrs by MTT assay; assay type: functional, cell-based; settings: PC-3, 72 h
# [2] = system: HCT-116; test: Cytotoxicity against human HCT116 cells assessed as reduction in cell viability after 72 hrs by MTT assay; assay type: functional, cell-based; settings: HCT-116, 72 h
# [3] = system: MDA-MB-231; test: cells; settings: Homo sapiens, MDA-MB-231, 72 h
# Description: Cytotoxicity against human MDA-MB-231 cells assessed as reduction in cell viability after 72 hrs by MTT assay
# [4] = system: A549; test: Cytotoxicity against human A549 cells assessed as reduction in cell viability after 72 hrs by MTT assay; assay type: functional, cell-based; settings: A549, 72 h
# [5] = system: MCF7; test: cells; settings: Homo sapiens, MCF7, 72 h
# Description: Cytotoxicity against human MCF7 cells assessed as reduction in cell viability after 72 hrs by MTT assay
IC50 [3],IC50 [5],SMILES,IC50 [1],IC50 [2],IC50 [4]
> 50 µM,> 50 µM,O=c1c2nnnn2c2cnc(Nc3ccc(N4CCCCC4)cc3)nc2n1C1CCCC1,> 50 µM,> 50 µM,1.16 µM
> 50 µM,> 50 µM,Cc1nnc2c(=O)n(C3CCCC3)c3nc(Nc4ccc(N5CCCC5)cc4)ncc3n12,> 50 µM,> 50 µM,> 50 µM
> 50 µM,> 50 µM,Cc1nnc2c(=O)n(C3CCCC3)c3nc(Nc4ccc(N(C)C)cc4)ncc3n12,> 50 µM,29.1 µM,8.86 µM
> 50 µM,> 50 µM,CCN1CCN(c2ccc(N(C(C)=O)c3ncc4c(n3)n(C3CCCC3)c(=O)c3nnc(C)n34)cc2)CC1,> 50 µM,40.3 µM,20.2 µM
4.9 µM,> 50 µM,CC1CCN(c2ccc(Nc3ncc4c(n3)n(C3CCCC3)c(=O)c3nncn34)cc2)CC1,> 50 µM,12 µM,3.31 µM
> 50 µM,7.28 µM,CN(C)c1ccc(Nc2ncc3c(n2)n(C2CCCC2)c(=O)c2nncn23)cc1,> 50 µM,19.1 µM,3.89 µM
> 50 µM,> 50 µM,Cc1nnc2c(=O)n(C3CCCC3)c3nc(Nc4ccc(N5CCSCC5)cc4)ncc3n12,> 50 µM,5.82 µM,7.19 µM
> 50 µM,> 50 µM,CN1CCN(C2CCN(c3ccc(Nc4ncc5c(n4)n(C4CCCC4)c(=O)c4nncn45)cc3)CC2)CC1,13.4 µM,9.3 µM,2.95 µM
> 50 µM,> 50 µM,O=c1c2nnnn2c2cnc(Nc3ccc(N4CCN(C5CCCC5)CC4)cc3)nc2n1C1CCCC1,> 50 µM,2.12 µM,> 50 µM
> 50 µM,> 50 µM,Cc1nnc2c(=O)n(C3CCCC3)c3nc(Nc4ccc(N5CCC(O)CC5)cc4)ncc3n12,> 50 µM,18.1 µM,21.7 µM
6.26 µM,> 50 µM,Cc1nnc2c(=O)n(C3CCCC3)c3nc(Nc4ccc(N5CCCCC5)cc4)ncc3n12,> 50 µM,19.1 µM,5.24 µM
3.96 µM,> 50 µM,O=c1c2nncn2c2cnc(Nc3ccc(N4CCN(C5CCCC5)CC4)cc3)nc2n1C1CCCC1,> 50 µM,22.3 µM,> 50 µM
48.5 µM,> 50 µM,O=c1c2nnnn2c2cnc(Nc3ccc(N4CCOCC4)cc3)nc2n1C1CCCC1,> 50 µM,43.2 µM,4.81 µM
8.1 µM,> 50 µM,O=c1c2nncn2c2cnc(Nc3ccc(N4CCC(O)CC4)cc3)nc2n1C1CCCC1,> 50 µM,36.1 µM,41.7 µM
5.85 µM,3.21 µM,Cc1nnc2c(=O)n(C3CCCC3)c3nc(Nc4ccc(N5CCC(N6CCN(C)CC6)CC5)cc4)ncc3n12,> 50 µM,12.1 µM,2.38 µM
3.5 µM,> 50 µM,O=c1c2nncn2c2cnc(Nc3ccc(N4CCOCC4)cc3)nc2n1C1CCCC1,> 50 µM,8.91 µM,38.9 µM
6.4 µM,> 50 µM,O=c1c2nncn2c2cnc(Nc3ccc(N4CCSCC4)cc3)nc2n1C1CCCC1,> 50 µM,12 µM,2.12 µM

IC50 [3],IC50 [5],SMILES,IC50 [1],IC50 [2],IC50 [4]
> 50 µM,> 50 µM,CCN1CCN(c2ccc(Nc3ncc4c(n3)n(C3CCCC3)c(=O)c3nnnn34)cc2)CC1,16.1 µM,> 50 µM,3.57 µM
> 50 µM,> 50 µM,Cc1nnc2c(=O)n(C3CCCC3)c3nc(Nc4ccc(NC5CCCC5)cc4)ncc3n12,> 50 µM,> 50 µM,9.29 µM
5.81 µM,> 50 µM,CN1CCN(C2CCN(c3ccc(Nc4ncc5c(n4)n(C4CCCC4)c(=O)c4nnnn45)cc3)CC2)CC1,> 50 µM,7.62 µM,1.28 µM
37.4 µM,> 50 µM,O=c1c2nnnn2c2cnc(Nc3ccc(N4CCSCC4)cc3)nc2n1C1CCCC1,> 50 µM,> 50 µM,> 50 µM
3.85 µM,> 50 µM,O=c1c2nncn2c2cnc(Nc3ccc(N4CCCCC4)cc3)nc2n1C1CCCC1,> 50 µM,20.1 µM,3.11 µM
> 50 µM,> 50 µM,O=c1c2nncn2c2cnc(Nc3ccc(NC4CCCC4)cc3)nc2n1C1CCCC1,> 50 µM,21.2 µM,> 50 µM
> 50 µM,> 50 µM,O=c1c2nncn2c2cnc(Nc3ccc(N4CCCC4)cc3)nc2n1C1CCCC1,11.3 µM,49.3 µM,5.63 µM
> 50 µM,2.31 µM,O=c1c2nnnn2c2cnc(Nc3ccc(N4CCN(CCO)CC4)cc3)nc2n1C1CCCC1,> 50 µM,> 50 µM,3.85 µM
8.95 µM,> 50 µM,O=c1c2nnnn2c2cnc(Nc3ccc(NC4CCCC4)cc3)nc2n1C1CCCC1,> 50 µM,43.2 µM,> 50 µM
> 50 µM,> 50 µM,O=c1c2nnnn2c2cnc(Nc3ccc(N4CCCC4)cc3)nc2n1C1CCCC1,> 50 µM,> 50 µM,7.86 µM
> 50 µM,2.58 µM,CN(C)c1ccc(Nc2ncc3c(n2)n(C2CCCC2)c(=O)c2nnnn23)cc1,> 50 µM,> 50 µM,10.1 µM
> 50 µM,> 50 µM,CC1CCN(c2ccc(Nc3ncc4c(n3)n(C3CCCC3)c(=O)c3nnnn34)cc2)CC1,> 50 µM,> 50 µM,4.92 µM
> 50 µM,> 50 µM,Cc1nnc2c(=O)n(C3CCCC3)c3nc(Nc4ccc(N5CCC(C)CC5)cc4)ncc3n12,> 50 µM,11.2 µM,> 50 µM
> 50 µM,> 50 µM,Cc1nnc2c(=O)n(C3CCCC3)c3nc(Nc4ccc(N5CCOCC5)cc4)ncc3n12,> 50 µM,8.91 µM,4.29 µM
3.5 µM,4.09 µM,CC(=O)c1c(C)c2cnc(Nc3ccc(N4CCNCC4)cn3)nc2n(C2CCCC2)c1=O [PALBOCICLIB],2.2 µM,8.9 µM,1.32 µM
> 50 µM,1.91 µM,O=c1c2nncn2c2cnc(Nc3ccc(N4CCN(CCO)CC4)cc3)nc2n1C1CCCC1,19.1 µM,9.71 µM,9.8 µM
53.5 µM,> 50 µM,O=c1c2nnnn2c2cnc(Nc3ccc(N4CCC(O)CC4)cc3)nc2n1C1CCCC1,> 50 µM,36.3 µM,> 50 µM
